Laboratory results reported in patent US20160326098A1, “Pharmaceutically Active Compound for Use as Anti-inflammatory Agent” (Pax Forschung GmbH, priority 2013, published 2016).

Experiments:
[1] = test system: collagen-induced arthritis (CIA); test: Collagen-induced arthritis (CIA), clinical evaluation; type: in vivo; conditions: mice, 1.11 mmol/kg force-fed from first immunization until end
Experimental: Further clinical studies were performed with animals having collagen-induced arthritis (CIA). In these studies, mice were used as test animals. At the age of eight weeks, the animals were immunized intradermally at the base of the tail with 50 μl of bovine collagen II emulsified in 50 μl of complete Freund's adjuvant. A second booster immunization was performed 3 weeks later, when 50 μl of incomplete Freund's adjuvant was administered with or without the same volume of collagen H. The animals were randomly allocated into experimental groups wherein group 1 served as control, having no arthritis, group 2 served as second control having arthritis, but receiving no further treatment, and group 3 having arthritis and being treated with compound according to the invention. The animals of group 3 were force-fed 1.11 mmol/kg body weight of the compound according to the invention from the first immunization until the end of the experiments. The severity of CIA was evaluated using a clinical scoring system; inflammatory hyperalgesia was detected with thermal stimulation. […]

[2] = test system: collagen-induced arthritis (CIA); test: Collagen-induced arthritis (CIA), thermal stimulation (inflammatory hyperalgesia); type: in vivo; conditions: mice with CIA, 1.11 mmol/kg force-fed, vs untreated arthritis group 2, FIG. 37
Experimental: Further clinical studies were performed with animals having collagen-induced arthritis (CIA). In these studies, mice were used as test animals. At the age of eight weeks, the animals were immunized intradermally at the base of the tail with 50 μl of bovine collagen II emulsified in 50 μl of complete Freund's adjuvant. A second booster immunization was performed 3 weeks later, when 50 μl of incomplete Freund's adjuvant was administered with or without the same volume of collagen H. The animals were randomly allocated into experimental groups wherein group 1 served as control, having no arthritis, group 2 served as second control having arthritis, but receiving no further treatment, and group 3 having arthritis and being treated with compound according to the invention. The animals of group 3 were force-fed 1.11 mmol/kg body weight of the compound according to the invention from the first immunization until the end of the experiments. The severity of CIA was evaluated using a clinical scoring system; inflammatory hyperalgesia was detected with thermal stimulation.
The animals were acclimatized to the experimental conditions for 1 hour preceding the test. Then they were placed onto a heating plate set to 40° C. to assess their thermal hypersensitivity. […]

## CC(=O)Oc1ccccc1C(=O)NC(CO)(CO)CO [compound according to the invention]
[1]; vs untreated arthritis group 2, FIG. 36
  severity of CIA (clinical scoring system of Nandakumar): less serious arthritis
[1]; same in untreated arthritis group 2, FIG. 36
  incidence of CIA: 90%
[2]
  thermosensitivity (thermal stimulation score, 40° C. heating plate): significantly lower thermosensitivity
